Reference: patent US11464866B2, “Pharmaceutical composition containing macromolecular drug” (BIODYNAMIC RESEARCH FOUNDATION, priority 2016, dated 2022)

System: S-180 mice (tumor model)
Settings: mouse, in vivo, 1 day
Experimental: Method: In 1 ml of saline (0.01 M phosphate, 0.15 M NaCl, pH 7.4) were dissolved 10 mg of each sample (10 mg/ml) and the predetermined amount of each test reagent shown in Table 2. Then, 0.1 ml of each obtained solution and 0.1 ml of an aqueous solution (10 mg/ml) of Evans blue were intravenously administered to S-180 mice (tumor model) The tumor size of the mice was a diameter of 5 to 7 mm. The next day, each mouse was dissected and solid tumors were taken out therefrom. Evans blue was extracted by a conventional method and the leaked Evans blue was quantified by absorption of 560 nm (see Non-Patent Document 1).

O=[N+]([O-])OCC(CO[N+](=O)[O-])O[N+](=O)[O-] [nitroglycerin]
enhanced effect (tumor delivery): ≥ 30%
